According to the NIST ThermoML archive (doi:10.1016/j.fluid.2012.03.025):

What was measured:
[1] = xn = mol fraction of the nth substance listed; details: 298.15 K, 101 kPa, Liquid, Vibrating tube method
[2] = refractive index (Na D-line) (dimensionless); xn = mol fraction of the nth substance listed; details: 298.15 K, 101 kPa, Liquid, Standard Abbe refractometry
[3] = Crystal

CCCCCCC(C)O (stereo unspecified) [2-octanol] + CCCCCCCCCCCCN(CCCCCCCCCCCC)CCCCCCCCCCCC
x2 = 0
Details	mass density [kg/m3]	refractive index
[1]	816.49	–
[2]	–	1.4244

CCCCCCC(C)O (stereo unspecified) [2-octanol] + CCCCCCCCCCO
Details	mass density, [1] [kg/m3]	refractive index, [2]
x1 = 0.0505	826.1	1.4349
x1 = 0.1001	825.65	1.4344
x1 = 0.1998	824.82	1.4334
x1 = 0.2999	824.02	1.4325
x1 = 0.4006	823.14	1.4315
x1 = 0.5001	822.18	1.4304
x1 = 0.6	821.17	1.4293
x1 = 0.6999	820.13	1.4281
x1 = 0.7995	819.04	1.427
x1 = 0.8998	817.86	1.4257
x1 = 0.95	817.21	1.4251
x1 = 1	816.49	1.4244

CCCCCCC(C)O (stereo unspecified) [2-octanol] + CCCCCCCCO
Details	mass density, [1] [kg/m3]	refractive index, [2]
x2 = 0	816.49	1.4243
x2 = 0.0403	816.8	1.4246
x2 = 0.0812	817.11	1.4247
x2 = 0.1657	817.65	1.425
x2 = 0.2539	818.13	1.4253
x2 = 0.3458	818.63	1.4255
x2 = 0.4421	819.16	1.4259
x2 = 0.5431	819.71	1.4262
x2 = 0.649	820.28	1.4265
x2 = 0.7603	820.85	1.4268
x2 = 0.8771	821.36	1.4272
x2 = 0.9375	821.61	1.4273

CCCCCCCCCCO [decan-1-ol] + CCCCCCC(C)O
x2 = 0
Details	mass density [kg/m3]	refractive index
[1]	826.59	–
[2]	–	1.4354

CCCCCCCCCCO [decan-1-ol] + CCCCCCCCCCCCN(CCCCCCCCCCCC)CCCCCCCCCCCC
x2 = 0
Details	mass density [kg/m3]	refractive index
[1]	826.59	–
[2]	–	1.4354

CCCCCCCCO [octan-1-ol] + CCCCCCC(C)O
x1 = 1
Details	mass density [kg/m3]	refractive index
[1]	821.76	–
[2]	–	1.4275

CCCCCCCCO [octan-1-ol] + CCCCCCCCCCCCN(CCCCCCCCCCCC)CCCCCCCCCCCC
x2 = 0
Details	mass density [kg/m3]	refractive index
[1]	821.76	–
[2]	–	1.4275

CCCCCCCCCCCCN(CCCCCCCCCCCC)CCCCCCCCCCCC [tridodecylamine]
Details	Normal melting temperature [°C]
[3]	16.1

CCCCCCCCCCCCN(CCCCCCCCCCCC)CCCCCCCCCCCC [tridodecylamine] + CCCCCCC(C)O
Details	mass density, [1] [kg/m3]	refractive index, [2]
x1 = 0.0526	816.69	1.4296
x1 = 0.1042	816.97	1.4336
x1 = 0.2072	817.55	1.4396
x1 = 0.31	818.03	1.4436
x1 = 0.4111	818.41	1.4465
x1 = 0.5114	818.68	1.4486
x1 = 0.6109	818.88	1.4503
x1 = 0.7083	819.04	1.4516
x1 = 0.805	819.15	1.4528
x1 = 0.9037	819.22	1.4537
x1 = 0.9524	819.24	1.4541
x1 = 1	819.23	1.4546

CCCCCCCCCCCCN(CCCCCCCCCCCC)CCCCCCCCCCCC [tridodecylamine] + CCCCCCCCCCO
Details	mass density, [1] [kg/m3]	refractive index, [2]
x1 = 0.0522	825.92	1.4385
x1 = 0.104	825.24	1.4409
x1 = 0.2071	824.17	1.4448
x1 = 0.3096	823.37	1.447
x1 = 0.4117	822.57	1.4493
x1 = 0.5112	821.93	1.4506
x1 = 0.6117	821.35	1.4519
x1 = 0.7097	820.82	1.4528
x1 = 0.8078	820.35	1.4535
x1 = 0.9041	819.86	1.4541
x1 = 0.9534	819.53	1.4544
x1 = 1	819.23	1.4546

CCCCCCCCCCCCN(CCCCCCCCCCCC)CCCCCCCCCCCC [tridodecylamine] + CCCCCCCCO
Details	mass density, [1] [kg/m3]	refractive index, [2]
x1 = 0.0652	821.91	1.4337
x1 = 0.1282	821.75	1.438
x1 = 0.2477	821.37	1.4434
x1 = 0.3616	820.95	1.4468
x1 = 0.469	820.67	1.4491
x1 = 0.5695	820.41	1.4506
x1 = 0.6684	820.15	1.4519
x1 = 0.7531	819.94	1.4528
x1 = 0.8438	819.65	1.4535
x1 = 0.9238	819.4	1.4541
x1 = 0.9643	819.29	1.4544
x1 = 1	819.23	1.4546
